Reference: patent US11660319B2, “Compositions comprising bacterial strains” (priority 2017, dated 2023)

What was measured:
HDAC = HDAC inhibition on whole HT-29 cells and HT-29 cell lysate; assay type: cell-based; details: for total HDAC activity, pure substances: HT-29, whole cells or lysate not told apart in the sentence
Method: Bacterial culture and cell-free supernatant collection Pure cultures of bacteria were grown anaerobically in YCFA broth until they reached their stationary growth phase. Cultures were centrifuged at 5,000×g for 5 minutes and the cell-free supernatant (CFS) was filtered using a 0.2 μM filter (Millipore, UK). 1 mL aliquots of the CFS were stored at −80° C. until use. Sodium butyrate, hexanoic and valeric acid were obtained from Sigma Aldrich (UK) and suspensions were prepared in YCFA broth.
To investigate which metabolites were responsible for the strain-induced HDAC inhibition, different concentrations of hexanoic acid, valeric acid and sodium butyrate were measured for their HDAC inhibition on whole HT-29 cells and on HT-29 cell lysate.

SHSY5Y = assay: Neurite outgrowth: microscopy and MAP2 gene expression (qPCR); assay type: cell-based, human; details: for neurite outgrowth / neuron-like phenotype: undifferentiated SHSY-5Y cells, 10% bacteria supernatant, 200 uM hexanoic acid or 200 uM valproic acid, 17 hrs
Method: SHSY5Y were plated in 10 cm petri dishes a density of 2×10^6 cells. After 24 h cells were treated in differentiation medium (growth medium containing 1% FBS without RA) with 10% bacteria supernatants or YCFA+, 10 uM RA, 200 uM hexanoic acid or 200 uM valproic acid, for 17 hrs. There after representative images were taken using phase contrast EVOS XL core microscope at 40×/0.65 magnification. Cells were collected, and total RNA was isolated according to RNeasy mini kit protocol (Qiagen). cDNAs were made using the high capacity cDNA reverse transcription kit (Applied Biosystems). Gene expression was measured using qPCR. GAPDH was used as internal control. Fold change was calculated according to the 2^(−ΔΔct) method.
Cells were seeded onto 8 well chamber slides (Marienfeld Laboratory Glassware) at 5×10^4 cells/well overnight and were treated with 10% bacterial supernatant for 24 hrs. For differentiation, cells were treated with 10 nM Retinoic acid for 5 days before treating with bacterial supernatant. Cells were then fixed with 4% paraformaldehyde in PBS for 20 minutes at room temperature (RT). Fixed cells were washed with PBS, and permeabilized with 1% Triton X-100 in PBS for 10 minutes. After washing with PBS, the slides were incubated with blocking buffer (4% BSA/PBS) for 1 hr at RT before adding anti-MAP2 antibody (sc-74421, Santa Cruz Biotechnology Inc) diluted in 1% BSA/PBS for 12 hr at 4° C. They were then washed twice with PBS, followed by incubation with Alexa Flour 488 conjugated anti-mouse (Molecular Probes Inc) and Alexa Flour 594 conjugated Phalloidin (ab 176757, Abcam) for 1 hr at RT. After washing 3× with PBS, the slides were mounted with Vectorshield[…] containing DAPI (Sigma, Aldrich). Slides were viewed using a Zeiss Axioscope microscope equipped with a 63×/1.2 W Korr objective and filter sets suitable for detection of the fluorochromes used. Manual exposure times for the digital acquisition of images immuno-labelled with MAP-2 were kept constant allowing comparison between different wells and treatments. Phalloidin (F-actin) and DAPI exposure times varied to suit the field of view. Randomised fields of view were acquired using a QImaging camera controlled by Image Pro Plus software. Images were saved as TIFs and opened in Adobe Photoshop CC 2015.1.2 and overlays of the MAP-2, DAPI and Phalloidion images overlaid and merged. Representative images were selected to illustrate the differences in abundance and location of the proteins examined

[1] = test system: SH-SY5Y neuroblastoma cells; assay: Neuroprotection / cell viability of neuroblastoma cells treated with MPP (CCK-8); assay type: cell-based, human; details: RA-differentiated SHSY-5Y cells treated with MPP+
Method: Once grown the SH-SY5Y neuroblastoma cells were plated on 96-well plate at 11,000 cells/well and incubated for 2 days. The cells were then transferred to differentiation medium (which contains FBS at 1%) and 10 uM retinoic acid (Sigma Aldrich, cat. n. R2625-100MG). Differentiation medium was replaced every other day and cells were harvested at 7 day of differentiation. Cells were pre-treated with or without MPP (Sigma Aldrich, cat. n. D048-1G) for 8 hours. Subsequently, cells were treated with 10% bacterial supernatant and incubated overnight. Cell viability was measured by using CCK-8 reagent (Sigma Aldrich, Cell Counting Kit-8, cat. n. 96992-3000TESTS-F) and read at 450 nm wavelength.

Compound	total HDAC activity, pure substances (HDAC)	neurite outgrowth / neuron-like phenotype (SHSY5Y)	other results
CCCCCC(=O)O [hexanoic acid]	did not show significant inhibitory activity	enhance neurite outgrowth	
O=c1c(O)c(-c2ccc(O)c(O)c2)oc2cc(O)cc(O)c12 [quercetin, reference compound]			protection compared to YCFA-MPP+ treated sample [1]: about the same
CCCC(=O)[O-].[Na+] [sodium butyrate, reference compound]	significant HDAC inhibition		HDAC inhibition, HT29 cell lysate (HDAC; HT-29 cell lysate): significant (P<0.05) inhibition; HDAC inhibition, HT29 whole cell (HDAC; whole HT-29 cells): significant (P<0.05) inhibition
CCCC(CCC)C(=O)O [valproic acid, reference compound]		increases neurite outgrowth	MAP2 expression (SHSY5Y; undifferentiated neuroblastoma cells, qPCR, GAPDH internal control): increase
